Measurements reported in patent US20140186364A1, “INHIBITION OF THE NT-3:TRKC BOUND AND ITS APPLICATION TO THE TREATMENT OF CANCER SUCH AS NEUROBLASTOMA” (CENTRE NATIONAL DE LA RECHERCHE SCIENTIFIQUE (CNRS), priority 2008, published 2014).
Residues, ends and D or L forms follow the SMILES beside them. *: point of attachment. Cbz = O=C(OCc1ccccc1)*; CH2F = FC*

How the values were obtained:
[1] = target: T1, rat TrkC (Rattus norvegicus, UniProt Q03351); test: TrkC-induced apoptosis in TrkC-transfected HEK293T or 13.S.24 cells (trypan blue, caspase activity, DNA condensation); type: cell-based; settings: for TrkC-induced apoptosis: general caspase inhibitors added after TrkC transfection
T1 construct: We first transiently expressed full-length rat TrkC in HEK293T cells; HA; expressed in transfected cells; host or cells: HEK293T or 13.S.24 olfactory neuroblasts
T1 sequence (Q03351 32-825 isoform Q03351-2 limits assumed): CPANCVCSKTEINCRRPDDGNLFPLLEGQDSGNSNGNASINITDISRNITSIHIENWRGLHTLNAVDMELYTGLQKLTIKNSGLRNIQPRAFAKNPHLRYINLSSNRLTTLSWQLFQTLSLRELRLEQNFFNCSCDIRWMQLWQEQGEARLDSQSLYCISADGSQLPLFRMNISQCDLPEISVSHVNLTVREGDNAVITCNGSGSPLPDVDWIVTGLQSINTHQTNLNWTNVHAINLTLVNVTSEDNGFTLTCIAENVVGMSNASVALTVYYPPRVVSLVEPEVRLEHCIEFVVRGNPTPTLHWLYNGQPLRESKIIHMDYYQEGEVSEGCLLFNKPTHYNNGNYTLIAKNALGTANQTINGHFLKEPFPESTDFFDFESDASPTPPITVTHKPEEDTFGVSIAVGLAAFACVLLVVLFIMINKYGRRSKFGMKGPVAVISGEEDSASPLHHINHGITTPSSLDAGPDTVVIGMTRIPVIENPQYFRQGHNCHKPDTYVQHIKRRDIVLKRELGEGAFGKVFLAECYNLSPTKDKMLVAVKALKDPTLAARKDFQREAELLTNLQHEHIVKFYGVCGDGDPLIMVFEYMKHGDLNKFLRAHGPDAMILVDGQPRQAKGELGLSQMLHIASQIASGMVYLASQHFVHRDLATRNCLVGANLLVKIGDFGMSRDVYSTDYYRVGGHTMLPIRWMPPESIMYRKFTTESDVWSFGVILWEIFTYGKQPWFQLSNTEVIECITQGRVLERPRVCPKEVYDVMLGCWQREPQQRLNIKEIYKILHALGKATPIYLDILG
Procedure: (§1) Transient transfections of Human Embryonic Kidney 293T and olfactory neuroblasts 13.S.24 cells were performed as previously described (4), by using Lipofectamine Plus (Invitrogen, Carlsbad, Calif.) according to the manufacturer's instructions. HEK293T and 13.S.24 cells where cultured in DMEM (Invitrogen) with the addition of 0.1% gentamycin for 13.S.24 cells. The recombinant human NT-3 was purchased from PreproTech (Rocky Hill, N.J.) and added to the culture medium 3 and 24 h after transfection. TrkC expression was monitored by Western blot with an anti-C-terminal antibody purchased from Santa Cruz Biotechnology (sc-139; Santa Cruz, Calif.), 24 h after transfection. Plasma membrane localisation of Trk receptors was performed by FACS analysis. Briefly, […] cells were transfected and labeled successively with anti-HA antibody (1/100; Sigma, St. Louis, Mo.) and anti-rabbit PE (1/100; Jackson ImmunoResearch Laboratories, West Grove, Pa.). Detection was done using a FACSCalibur (BD Biosciences, San Jose, Calif.).
Cell death was analyzed using trypan blue staining procedures, as previously described (6). Either the z-VAD-fmk (TEBU-bio, Le Perray en Yvelines Cedex, France; […]) or the BAF [Boc-Asp(Ome) Fluoromethyl Ketone; Sigma-Aldrich; […]] caspase inhibitors were added to the culture medium just after transfection. The extent of cell death is presented as the percentage of trypan blue-positive cells in the different transfected cell populations. Relative caspase activity was determined by fluorescence measurement of DEVDAFC cleavage, as described in (8). Immunostaining using anti-caspase-3 antibody (Cell Signaling) was described in (4). […] For flow cytometric analysis, stained cells were counted using a FACSCalibur (BD Biosciences) and CellQuest analysis software with excitation and emission settings of 488 nm and 525-550 nm (filter FL1), respectively.

[2] = tested on: TrkC; test: TrkC caspase cleavage in TrkC-expressing 13.S.24 cells (immunoblot); type: cell-based, rat; settings: 13.S.24 cells expressing TrkC; C-terminal TrkC antibody
Procedure: (§2) To observe the cleavage of TrkC in 13.S.24, MG132 ([…], Z-Leu-Leu-Leuala, Sigma-Aldrich) was added to the culture medium 2 h before harvesting the cells. Cells were then potterised in the Wang buffer (20 mM Hepes KOH/10 mMKCl/1.5 mM MgC12/1 mM Sodium EDTA/1 mM Sodium EGTA/0.1 mM PMSF/1 mM DTT/[…]). Proteins were then analyzed by Western blot using the anti-TrkC antibody (sc-139; Santa Cruz Biotechnology). To monitor TrkC cleavage in vivo, E10.5 OF1 mouse embryos were dissected with a sharpened tungsten needle to isolate the spinal cord, the somites and DRG precursors which were then semidissociated in DMEM F-12 (Invitrogen). The samples were incubated overnight under agitation at 37° C. in the presence or absence of either NT-3 (PreproTech; 10 ng/ml), or BAF (Sigma-Aldrich; […]), or the NT-3 blocking antibody AF1404 (R&D, Minneapolis, Minn.; 1/100). The samples were then lysed directly in the Laemmli sample buffer and the proteins separated on 12% SDS/PAGE. The filter was probed with the anti-TrkC antibody.

[3] = target: T2, TrkC (Mus musculus, UniProt Q6VNS1); test: TrkC cleavage in semidissociated embryonic mouse DRG (Western blot); type: cell-based; settings: DRG maintained overnight; NT-3 10 ng/ml
T2 construct: embryonic mouse dorsal root ganglion (DRG) were semidissociated and maintained overnight; from tissue; host or cells: spinal cord, somites and DRG precursors of E10.5 OF1 mouse embryos, semidissociated
T2 sequence (Q6VNS1 32-825): as the sequence (Q03351 32-825 isoform Q03351-2 limits assumed) above
Procedure: as §2

[4] = target: T3, TrkC (Homo sapiens, UniProt Q16288); test: Endogenous TrkC cleavage in CLB-Ge2 cells (western blot); type: cell-based; parameters: endogenous in cells; host or cells: CLB-Ge2 human neuroblastoma cells
T3 sequence (Q16288 32-839): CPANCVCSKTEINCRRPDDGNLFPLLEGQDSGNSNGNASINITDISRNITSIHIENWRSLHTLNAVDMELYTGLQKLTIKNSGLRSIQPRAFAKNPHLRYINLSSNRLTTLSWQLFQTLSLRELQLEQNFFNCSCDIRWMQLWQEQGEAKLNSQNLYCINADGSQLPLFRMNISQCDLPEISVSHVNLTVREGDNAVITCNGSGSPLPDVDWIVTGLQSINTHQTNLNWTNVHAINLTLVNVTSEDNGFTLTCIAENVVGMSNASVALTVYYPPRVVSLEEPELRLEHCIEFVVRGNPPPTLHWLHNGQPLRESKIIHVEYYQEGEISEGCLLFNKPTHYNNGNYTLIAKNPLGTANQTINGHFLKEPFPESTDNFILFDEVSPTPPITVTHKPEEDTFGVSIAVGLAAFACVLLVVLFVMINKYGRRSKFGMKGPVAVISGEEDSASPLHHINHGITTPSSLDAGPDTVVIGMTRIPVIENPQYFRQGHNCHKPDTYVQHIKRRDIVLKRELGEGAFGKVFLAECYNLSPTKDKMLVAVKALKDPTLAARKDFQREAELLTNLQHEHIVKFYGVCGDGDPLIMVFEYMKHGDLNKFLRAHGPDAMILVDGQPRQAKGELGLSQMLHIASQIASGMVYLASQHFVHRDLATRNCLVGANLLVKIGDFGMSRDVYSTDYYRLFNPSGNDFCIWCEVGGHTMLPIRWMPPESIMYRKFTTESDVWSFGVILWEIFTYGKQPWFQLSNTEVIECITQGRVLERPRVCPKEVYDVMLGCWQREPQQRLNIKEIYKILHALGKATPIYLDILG
Procedure: 8×10^4 cells were cytospun on coverslips and fixed in 4% PFA. The slides were then incubated at room temperature for one hour with an antibody recognizing human NT-3 (1/300, SC-547). After rinsing in Phosphate Buffer Saline, the slides were incubated with an Alexa-488-Donkey anti-Rabbit antibody (Molecular Probes). Nucleus were visualized with Hoechst staining (Sigma). Expression of TrkC constructs and endogenous TrkC cleavage were monitored by western blot with anti-Trk antibody (sc-11; Santa Cruz Biotechnology) and an anti […]-actin (13E5; Cell Signaling) was used as loading control as previously described (36).

[5] = target: T3, TrkC; test: Human TrkC-induced cell death in transfected 13.S.24 cells (active caspase-3); type: cell-based; parameters: expressed in transfected cells; host or cells: 13.S.24 olfactory neuroblasts; settings: NT-3 10 ng/ml
Procedure: as §1, with “Detection was done using a FACSCalibur (BD Biosciences, San Jose, Calif.).” left out
Cell death was analyzed using trypan blue staining procedures, as previously described (6). […] Relative caspase activity was determined by fluorescence measurement of DEVDAFC cleavage, as described in (8). […] For flow cytometric analysis, stained cells were counted using a FACSCalibur (BD Biosciences) and CellQuest analysis software with excitation and emission settings of 488 nm and 525-550 nm (filter FL1), respectively.

## COC(=O)CC(NC(=O)OC(C)(C)C)C(=O)CF (stereo not shown) [BAF, boc-aspartyl(OMe)-fluoromethylketone]
[1]
  TrkC-induced apoptosis: fully inhibit TrkC-induced apoptosis
[2]
  TrkC cleavage bands (35 and 20 kDa): failed to be detected
[3]
  20-kDa TrkC fragment: disappeared
[4]
  TrkC caspase cleavage (20 kDa band): blocked

## COC(=O)CC[C@H](NC(=O)[C@H](CC(=O)OC)NC(=O)OCc1ccccc1)C(=O)N[C@H](C(=O)N[C@@H](CC(=O)OC)C(=O)CF)C(C)C [DEVD-fmk]
[2]
  TrkC cleavage bands (35 and 20 kDa): fail to block caspase-dependent cleavage of TrkC

## COC(=O)C[C@H](NC(=O)[C@H](C)NC(=O)[C@@H](NC(=O)OCc1ccccc1)C(C)C)C(=O)CF [zVAD-fmk] (Cbz-Val-Ala-Asp(OMe)-CH2F)
[1]
  TrkC-induced apoptosis: fully inhibit TrkC-induced apoptosis
[2]
  TrkC cleavage bands (35 and 20 kDa): failed to be detected

## NT-3: recombinant human NT-3 purchased from PreproTech; ligand of TrkC
[1]; rat TrkC-transfected 13.S.24 cells, NT-3 0.5-50 ng/ml
  TrkC-mediated cell death (trypan blue exclusion, caspase activity, DNA condensation): inhibited, in a dose-dependent manner
[3]
  20-kDa TrkC fragment: disappeared
[5]
  human TrkC-triggered cell death: triggers cell death unless NT-3 is present
